In one test the target is T1, ER-α in MCF-7 cells (Homo sapiens, UniProt P03372).
T1 sequence (P03372 1-595): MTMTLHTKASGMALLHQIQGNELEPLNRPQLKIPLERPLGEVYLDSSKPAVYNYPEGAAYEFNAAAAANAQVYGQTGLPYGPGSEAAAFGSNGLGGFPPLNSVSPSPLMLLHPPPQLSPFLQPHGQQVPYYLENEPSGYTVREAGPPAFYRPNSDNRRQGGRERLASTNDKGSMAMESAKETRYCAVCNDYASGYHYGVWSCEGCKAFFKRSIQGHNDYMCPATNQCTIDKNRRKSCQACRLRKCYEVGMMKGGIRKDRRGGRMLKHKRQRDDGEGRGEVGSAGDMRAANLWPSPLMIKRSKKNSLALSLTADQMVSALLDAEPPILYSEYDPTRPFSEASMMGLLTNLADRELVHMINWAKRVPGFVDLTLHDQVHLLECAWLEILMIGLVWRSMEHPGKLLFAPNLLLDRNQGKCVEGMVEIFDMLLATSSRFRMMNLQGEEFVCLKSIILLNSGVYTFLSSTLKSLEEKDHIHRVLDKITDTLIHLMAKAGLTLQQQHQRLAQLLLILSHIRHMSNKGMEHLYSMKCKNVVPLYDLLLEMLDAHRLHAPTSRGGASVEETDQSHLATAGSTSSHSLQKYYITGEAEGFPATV
As to the kind of experiment: Breast cancer cell ER-α in cell western assay (SP1). In kind it is cell-based. Also on record: endogenous in cells; host or cells: MCF-7. The following applies: 4 or 24 hr post compound addition; for Emax: MCF7, SP1 antibody, read-out: ER-α In Cell Western Assay (SP1) Max Response; for DC50: SP1 antibody, read-out: ER-α In Cell Western Assay (SP1) IC50. The protocol: MCF-7 cells were adjusted to a concentration of 200,000 cells per mL in RPMI containing 10% charcoal-stripped FBS and 20 mM HEPES. 16 microliters of the cell suspension (3200 cells) was added to each well of a poly-D-lysine 384 well plate, and the cells were incubated overnight to allow the cells to adhere. The following day an eleven point, serial semilog dilution of each compound was added to the cells in 16 μL at a final concentration ranging from 0.3-0.000003 μM. At 4 or 24 hr post compound addition, the cells were fixed (10% formalin in PBS) for 20 minutes. Cells were permeablized in PBS 0.1% Triton and blocked with LICOR blocking buffer (50 μl/well, 90°). The wells were then incubated overnight at 4° C. with SP1 rabbit monoclonal Ab (Thermo Scientific) diluted 1:1000 in LICOR blocking buffer/0.1% Tween-20. Wells which were treated with blocking buffer with Tween but no antibody were used as a background control. Wells were washed with 0.1% Tween-20/PBS and then incubated in goat anti-rabbit IRDye™ 800CW (LICOR Inc.; 1:1000) and DRAQ5 DNA dye (1:2000 for 2 mM stock) diluted in LICOR blocking buffer containing 0.1% Tween-20 and 0.01% SDS for 60 minutes. Cells were washed (50 μl/well, 5′ each) in 0.1% Tween-20/PBS. Plates were scanned on a LICOR Odyssey infrared imaging system. Integrated intensities in the 800 nm channel and 700 nm channel were measured to determine levels of ER and DNA respectively. Percent ER levels were determined as follows: (Integrated intensity 800 nm sample/integrated intensity 700 nm sample)/(Integrated intensity 800 nm untreated cells/integrated intensity 700 nm untreated cells)×100=% ER levels.

In a further test the test system is MCF-7 cells. The experiment in a line: Breast cancer cell viability assay (CellTiter-Glo, 5 days). In kind it is cell-based. The following applies: 5 days' compound exposure; for IC50: Homo sapiens, MCF7, 120 h. The protocol:
MCF-7 cells were adjusted to a concentration of 20,000 cells per mL in RPMI containing 10% FBS and 20 mM HEPES. 16 microliters of the cell suspension (320 cells) was added to each well of a 384 well plate, and the cells were incubated overnight to allow the cells to adhere. The following day an eleven point, serial semilog dilution of each compound was added to the cells in 16 μL at a final concentration ranging from 0.3-0.000003 μM. After 5 days' compound exposure, 16 μL of CellTiter-GLo (Promega, Madison Wis.) was added to the cells the relative luminescence units (RLUs) of each well was determined CellTiter-Glo added to 32 μL of medium without cells was used to obtain a background value. The Percent viability of each sample was determined as follows: (RLU sample-RLU background/RLU untreated cells-RLU background)×100=% viability.
In general terms: ATP-based viability assays read luminescence as a measure of living cells.

SMILES strings stand for the structures.

Data on nine molecules can be found in patent publication US9399646B2 (Genentech, Inc., priority 2010, dated 2016).

By IC50 is commonly meant the concentration that gives 50% inhibition. As to `CC/C(=C(/c1ccc(/C=C/C(=O)O)cc1)c1cc(F)c2[nH]ccc2c1)c1ccc(F)cc1Cl` [Compound 254, (E)-3-(4-((E)-2-(2-Chloro-4-fluorophenyl)-1-(7-fluoro-1H-indol-5-yl)but-1-en-1-yl)phenyl)acrylic acid], on ER-α in MCF-7 cells, the Emax is at least 40% and the DC50 is at most 100 nM. In the test on MCF-7 cells, the “MCF7 Viability Assay Max Response” value is “++ (++ = a single % value ≧ 40%)” and the IC50 was at most 100 nM.
Take `CC/C(=C(/c1ccc(/C=C/C(=O)O)cc1)c1cccc2[nH]nnc12)c1ccccc1` [Compound 88, (E)-3-(4-((E)-1-(1H-Benzo[d][1,2,3]triazol-4-yl)-2-phenylbut-1-en-1-yl)phenyl)acrylic acid]: on ER-α in MCF-7 cells, the Emax was at least 40% and the DC50 is above 100 nM. Besides, in the test on MCF-7 cells, the “MCF7 Viability Assay Max Response” value was “++ (++ = a single % value ≧ 40%)” and the IC50 was above 100 nM.
`CC/C(=C(/c1ccc(/C=C/C(=O)O)cc1)c1ccc2[nH]ncc2c1)c1ccc(-n2cccn2)cc1` [Compound 264, (E)-3-(4-((E)-2-(4-(1H-Pyrazol-1-yl)phenyl)-1-(1H-indazol-5-yl)but-1-en-1-yl)phenyl)acrylic acid]: on ER-α in MCF-7 cells, the Emax was at least 40% and the DC50 was above 100 nM. In addition, in the test with MCF-7 cells, the “MCF7 Viability Assay Max Response” value is listed as “++ (++ = a single % value ≧ 40%)” and the IC50 is above 100 nM.
As for `CC/C(=C(/c1ccc(/C=C/C(=O)O)cc1)c1cc(F)c2[nH]ccc2c1)c1ccc(Cl)cc1Cl` [Compound 253, (E)-3-(4-((E)-2-(2,4-Dichlorophenyl)-1-(7-fluoro-1H-indol-5-yl)but-1-en-1-yl)phenyl)acrylic acid], at ER-α in MCF-7 cells, the Emax was at least 40% and the DC50 was at most 100 nM. In addition, in the test with MCF-7 cells, the “MCF7 Viability Assay Max Response” value was “++ (++ = a single % value ≧ 40%)” and the IC50 was at most 100 nM.
On to `CC/C(=C(/c1ccc(/C=C/C(=O)O)cc1)c1ccc2[nH]ncc2c1)c1cc(Oc2ccccc2)ccc1C` [Compound 297, (E)-3-(4-((E)-1-(1H-Indazol-5-yl)-2-(2-methyl-5-phenoxyphenyl)but-1-en-1-yl)phenyl)acrylic acid], for which, on ER-α in MCF-7 cells, the Emax is at least 40% and the DC50 was at most 100 nM. Further, in the test on MCF-7 cells, the “MCF7 Viability Assay Max Response” value was “++ (++ = a single % value ≧ 40%)” and the IC50 was at most 100 nM.
For `CC/C(=C(/c1ccc(/C=C/C(=O)O)cc1)c1ccn2cnnc2c1)c1ccccc1` [Compound 134, (E)-3-(4-((E)-1-([1,2,4]Triazolo[4,3-a]pyridin-7-yl)-2-phenylbut-1-en-1-yl)phenyl)acrylic acid], at ER-α in MCF-7 cells, the Emax is below 40% and the DC50 is above 100 nM. Also, in the test on MCF-7 cells, the “MCF7 Viability Assay Max Response” value is given as “+ (+ = a single % value < 40%)” and the IC50 was above 100 nM.
As for `CC/C(=C(/c1ccc(/C=C/C(=O)O)cc1)c1ccc2[nH]ncc2c1)c1cccc(Oc2cncnc2)c1` [Compound 369, (E)-3-(4-((E)-1-(1H-Indazol-5-yl)-2-(3-(pyrimidin-5-yloxy)phenyl)but-1-en-1-yl)phenyl)acrylic acid], on ER-α in MCF-7 cells, the Emax was at least 40% and the DC50 is at most 100 nM. In addition, in the test with MCF-7 cells, the “MCF7 Viability Assay Max Response” value was “++ (++ = a single % value ≧ 40%)” and the IC50 was above 100 nM.
Take `CC/C(=C(/c1ccc(/C=C/C(=O)O)cc1)c1ccc2[nH]ncc2c1)c1ccc(Oc2ccccn2)cc1` [Compound 316, (E)-3-(4-((E)-1-(1H-Indazol-5-yl)-2-(4-(pyridin-2-yloxy)phenyl)but-1-en-1-yl)phenyl)acrylic acid]: at ER-α in MCF-7 cells, the Emax is at least 40% and the DC50 was at most 100 nM. In addition, in the test on MCF-7 cells, the “MCF7 Viability Assay Max Response” value is recorded as “++ (++ = a single % value ≧ 40%)” and the half-inhibitory concentration (IC50) is at most 100 nM.
In turn, `CC/C(=C(/c1ccc(/C=C/C(=O)O)cc1)c1ccc2c(cnn2C(F)F)c1)c1ccc(F)cc1Cl` [Compound 401, (E)-3-(4-((E)-2-(2-Chloro-4-fluorophenyl)-1-(1-(difluoromethyl)-1H-indazol-5-yl)but-1-en-1-yl)phenyl)acrylic acid] registered an IC50 in the test on MCF-7 cells above 100 nM.
